According to patent US8501911B2, “Methods of reducing inflammation and mucus hypersecretion” (Biomarck Pharmaceuticals, Ltd, priority 1999, dated 2013):
Residues, ends and D or L forms follow the SMILES beside them. *: point of attachment. Myristoyl = CCCCCCCCCCCCCC(=O)*

Key:
[1] = Solubility in 0.5 N saline; type: physicochemical; conditions: in 0.5 N Saline at pH 6.5
U937 cells = test: Inhibition of lysozyme release from U937 cells; type: cell-based, human; conditions: for % Inhibition Lysozyme: at 50 μM of test peptide, 100 nM PMA; for Effect on PMA stimulated lysozyme secretion: pre-incubation with 50 to 100 μM (RNS: any time point or concentration tested)
Procedure: U937 is a monocyte-like human cell line which was purchased from American Type Culture Collection (ATCC) Rockville, Md. (catalog #CRL-15932). The cells were maintained in medium consisting of RPMI 1640 with glutamine supplemented with 10% heat inactivated fetal bovine serum (Gibco, Carlsbad, Calif.), 50 IU/mL, penicillin, 50 μg/mL streptomycin at 37° C. in an atmosphere containing 5% CO2. U937 cells were washed and resuspended at 2.5×10^6 cells/mL in phenol red free RPMI-1640 medium (Cellgro, Mediatech Inc.). Aliquots of cells in 15 mL plastic tubes were preincubated with indicated concentrations of test peptides (dissolved in PBS, pH 7.0) for 10 min at 37° C. The cells were then stimulated with 100 nM PMA for 1 hour. The cells were then centrifuged at 400×g for 5 min at 4° C. Lysozyme released from U937 cells was measured using spectrophotometric assay as described previously by Ralph et al., 1976. (Ralph P, Moore M A S, and Nilsson K. Lysozyme synthesis by established human and murine histocytic lymphoma cell lines. J. Exp. Med. 143:1528-33, 1976). Briefly. 100 μL of supernatants were placed in a 96-well microtiter plate and mixed with 100 μL of a Micrococcus lysodeikticus (Sigma-Aldrich) suspension (0.3 mg/mL in 0.1 M sodium phosphate buffer, pH 7.0), incubated for […] at room temperature and decrease in absorbance at 450 nm was measured. Chicken egg white lysozyme (EMD Biosciences) was used as a standard.

NK-92 cells = test: Inhibition of release of granzyme from NK-92 cells; type: cell-based, human; conditions: for % Inhibition Granzyme: at 50 μM of test peptide
Procedure: Measurement of NK cell granzyme secretion: Granzyme secreted from NK-92 cells was assayed by measuring hydrolysis of Nα-benzyloxycarbonyl-L-lysine thiobenzyl ester (BLT, EMD Bioscience, Inc.) essentially as described previously (Takayama H. Trenn G, Sitkovsky M V. A novel cytotoxic T lymphocyte activation assay. J. Immunol. Methods 104:183-190, 1987). An aliquot of 50 μl of supernatant was transferred to a 96-well plate, and 150 μl of 0.2 mM solution of BLT and 0.22 mM DTNB (Sigma-Aldrich Co.) in phosphate-buffered saline (PBS, pH 7.2) was added to the supernatant. Absorbance at 410 nm was measured after incubation for 30 min at room temperature. Results were expressed as percentage of total cellular enzyme content, using the amount obtained in the same number of triton X-100-lysed cells.
Because standard granzyme from NK-92 cells was not available to use for quantification, we measured both released and intracellular (from lysed cells) levels of granzyme, and expressed the released granzyme as a percentage of total (intracellular and released) for each. To measure intracellular granzyme from NK-92 cells, appropriate aliquots of 0.1% triton X-100-lysed cells were taken for quantification of the enzyme as described above. All data are expressed as percentage of control to minimize variability between cultures.

human neutrophils = test: Inhibition of release of myeloperoxidase (MPO) from PMA-stimulated human neutrophils; type: cell-based; conditions: at 100 μM of test peptide; 100 nM PMA
Description: Human neutrophil isolation: Human neutrophils were isolated according to a slightly modified method previously described by Akasaki T, Koga H, and Sumimoto H., Phosphoinositide 3-kinase-dependent and -independent activation of the small GTPase Rac2 in human neutrophils, J. Biol. Chem. 274:18055-18059, 1999. Alternatively, human neutrophils were isolated as previously described (see Takashi S, OkuboY, Horie S. Contribution of CD54 to human eosinophil and neutrophil superoxide production. J. Appl. Physiol. 91:613-622, 2001) with slight modifications. Briefly, heparinized venous blood was obtained from normal healthy human volunteers, diluted with RPMI-1640 (Cellgro; Mediatech, Inc., Herndon, Va.) at a ratio of 1:1, layered onto a Histopaque (density, 1.077 g/ml; Sigma-Aldrich Co., St. Louis, Mo.), and centrifuged at 400 g for 20 min at 4° C. The supernatant and mononuclear cells at the interface were carefully removed, and erythrocytes in the sediment were lysed in chilled distilled water. Isolated granulocytes were washed twice with Hanks' balanced salts solution (HBSS) and resuspended in HBSS on ice. The neutrophils used for the experiments were of >98% purity with <2% contamination by eosinophils, and the viability was >99% as determined by Trypan blue dye exclusion.
Measurement of released MPO activity: Purified human neutrophils suspended in HBSS were aliquoted at 4×10^6 cells/ml in 15 ml tubes and preincubated with either 50 or 100 μM of test peptide (dissolved in PBS, pH 7.0) for 10 min at 37° C. […] Secretions were quantified by using as a standard, human MPO.
MPO activity in the cell supernatant was assayed using tetramethylbenzidine (TMB) based on a previously established technique (Paige L, Mahmudi-Azer S, Bablitz B, Hage S C, Velazquez J R, Man S F P, and Moqbel R. Rapid Mobilization of intracellularly stored RANTES in response to Interferon-γ in human eosinophils. Blood, 94:23-32, 1999). […] The reaction was terminated by addition of 50 μl of 1M H2SO4 and absorbance was read at 450 nm in a spectrophotometric microplate reader (Molecular Devices, Sunnyvale, Calif.).

| Compound | solubility [1] [mg/mL] | % Inhibition Lysozyme (U937 cells) [%] | Effect on PMA stimulated lysozyme secretion (U937 cells) | Effect on PMA-enhanced granzyme secretion (NK-92 cells; any of the time points or concentrations tested) | % Inhibition Granzyme (NK-92 cells) [%] | % Inhibition MPO (human neutrophils) [%] | Granzyme secretion relative to control as 100% (NK-92 cells; 100 nM PMA, 2 hour incubation) | Reduction in granzyme secretion relative to the PMA control reference (NK-92 cells; 100 μM peptide, 100 nM PMA 2 hour) |
| --- | --- | --- | --- | --- | --- | --- | --- | --- |
| CCCCCCCCCCCCCC(=O)NCC(=O)N[C@H](C(=O)N[C@@H](C)C(=O)N1CCC[C@H]1C(=O)N[C@@H](C)C(=O)N[C@@H](C)C(=O)N[C@@H](CCC(=O)O)C(=O)NCC(=O)N[C@@H](C)C(=O)NCC(=O)N[C@@H](C)C(=O)N[C@@H](CCC(=O)O)C(=O)N[C@H](C(=O)N[C@@H](CCCCN)C(=O)N[C@@H](CCCNC(=N)N)C(=O)N[C@@H](C)C(=O)N[C@@H](CO)C(=O)N[C@@H](C)C(=O)N[C@@H](CCC(=O)O)C(=O)N[C@@H](C)C(=O)N[C@@H](CCCCN)C(=O)N[C@@H](CCC(N)=O)C(=O)N[C@@H](C)C(=O)N[C@@H](Cc1ccccc1)C(=O)O)C(C)C)[C@@H](C)O [RNS peptide, reference compound] (Myristoyl-GTAPAAEGAGAEVKRASAEAKQAF-OH; C-terminus assumed) | > 15 | 0 | did not affect | did not affect | 29.5 | 0 |  |  |
| CCCCCCCCCCCCCC(=O)NCC(=O)N[C@@H](C)C(=O)N[C@@H](CCC(N)=O)C(=O)N[C@@H](Cc1ccccc1)C(=O)N[C@@H](CO)C(=O)N[C@@H](CCCCN)C(=O)N[C@H](C(=O)N[C@@H](C)C(=O)N[C@@H](C)C(=O)N[C@@H](CCCCN)C(=O)NCC(=O)N[C@@H](CCC(=O)O)C(=O)O)[C@@H](C)O [SEQ ID NO: 13, N-myristoyl-GAQFSKTAAKGE] (Myristoyl-GAQFSKTAAKGE-OH; C-terminus assumed) | > 2 | 85.2 |  |  |  | 43.2 |  |  |
| CCCCCCCCCCCCCC(=O)NCC(=O)N[C@@H](C)C(=O)N[C@@H](CCC(N)=O)C(=O)N[C@@H](Cc1ccccc1)C(=O)N[C@@H](CO)C(=O)N[C@@H](CCCCN)C(=O)N[C@H](C(=O)N[C@@H](C)C(=O)N[C@@H](C)C(=O)N[C@@H](CCCCN)C(=O)O)[C@@H](C)O [SEQ ID NO: 15, N-myristoyl-GAQFSKTAAK] (Myristoyl-GAQFSKTAAK-OH; C-terminus assumed) | > 10 | 56.6 |  |  |  |  |  |  |
| CCCCCCCCCCCCCC(=O)O[C@@H]1[C@@H](C)[C@@]2(O)[C@@H](C=C(CO)C[C@]3(O)C(=O)C(C)=C[C@@H]23)[C@@H]2C(C)(C)[C@]12OC(C)=O [PMA, phorbol 12-myristate 13-acetate] |  |  |  |  |  |  | about 220% |  |
| CCCCCCCCCCCCCC(=O)NCC(=O)N[C@@H](C)C(=O)N[C@@H](CCC(N)=O)C(=O)N[C@@H](Cc1ccccc1)C(=O)N[C@@H](CO)C(=O)N[C@@H](CCCCN)C(=O)N[C@H](C(=O)N[C@@H](C)C(=O)N[C@@H](C)C(=O)N[C@@H](CCCCN)C(=O)NCC(=O)N[C@@H](CCC(=O)O)C(=O)N[C@@H](C)C(=O)N[C@@H](C)C(=O)N[C@@H](C)C(=O)N[C@@H](CCC(=O)O)C(=O)N[C@@H](CCCNC(=N)N)C(=O)N1CCC[C@H]1C(=O)NCC(=O)N[C@@H](CCC(=O)O)C(=O)N[C@@H](C)C(=O)N[C@@H](C)C(=O)N[C@H](C(=O)N[C@@H](C)C(=O)O)C(C)C)[C@@H](C)O [MANS peptide] (Myristoyl-GAQFSKTAAKGEAAAERPGEAAVA-OH; C-terminus assumed) | < 5 | 40.8 | significantly attenuated |  | 76.0 | 31.2 |  | about 60% |
